Consider `CC(=O)NCc1ccc(CN2CCN(c3ncccn3)CC2)cc1`, for which the melting point is 120 to 121 °C.
For the molecule `Cn1ncc(SCc2ccccc2)c(Br)c1=O`, the melting point was 118 to 121 °C.
The same measure for `FC(F)c1ncnc(-c2ccc(Cl)cc2Cl)c1Cl`: 55 to 56 °C; for `CCCCCc1c(C(C)C)nc(C(C)C)c(CO)c1-c1cccc(C)c1`: 88 to 90 °C; for `COC(=O)NOCC(=O)OCOC(=O)Oc1c(Br)cc(C#N)cc1Br`: 110 to 111 °C.
The same measure for `O=C(/C=C/c1ccc2ccccc2c1)Nc1cc(Cl)ccc1NC(=O)C(F)(F)F`: 179 to 185 °C.
Molecule `O=C(Nc1cccc(-c2ccnc3c(C(=O)c4cccs4)cnn23)c1)c1cccc(Br)c1` registered a melting point greater than 300 °C.
In the case of `O=C(O)C1=CSC2C(=Cc3cc4c(s3)CCOC4)C(=O)N12` (stereo not drawn) it was greater than 250 °C; in that of `CC(C)NCC(O)C(Oc1ccccc1)c1ccccc1` (stereo not drawn), 95 to 96 °C.
In the case of `COC(=O)N1CSC(=Cc2cc(C(C)(C)C)c(O)c(C(C)(C)C)c2)C1=O` it was 165 to 168 °C; in that of `CC(CC1CCNCC1)c1c[nH]c2ccccc12` (stereo not drawn), 125 °C; in that of `CC(NC(=O)CCc1ccc(C(C)(C)C)cc1)c1ccc(NS(C)(=O)=O)c(F)c1` (stereo not drawn), 152 to 154 °C.
The same measure for `CC(=O)C1CCC2C3CCC4CC(OS(C)(=O)=O)CCC4(C)C3C(OC(=O)CI)CC12C` (stereo not drawn): 142 to 143 °C; for `COc1cc2c(cc1OC)C(C=Cc1cccc(OC)c1OC)=NN(C(C)=O)C(C)C2` (stereo not drawn): 72 to 74 °C.
The molecule `C#CCNC(=O)c1ccccc1Nc1nc(Cl)ncc1Cl` registered a melting point of 188 to 191 °C.
For `OC1(Cn2cncn2)C(=Cc2ccc(Cl)cc2)CCCC1C1CCCCC1` (stereo not drawn), the melting point worked out at 144 °C.
In the case of `COC(=O)c1ccc(CN2C(=O)CCc3c(CC4SC(=O)NC4=O)ccc(OC)c32)cc1` (stereo not drawn) it was 193 to 196 °C.
In the case of `COc1ccc(-n2nc(OC)cc2-c2ccc(C#N)cc2)cc1` it was 112 to 113 °C; in that of `CCCc1c(OCCCC(=O)NCCCc2cccnc2)ccc(C(C)=O)c1O`, 97 to 98 °C.
As for `COc1ccc(C2CCN(C(=O)C(=O)O)CC2)cc1OC1CCCC1`, the melting point was in the range of 112 to 113 °C.
`O=C(O)CCCCCCCCCCCCCCC(=O)ON1C(=O)c2ccccc2C1=O`: the melting point lay within 109 to 110 °C.
For `CN1CCN(c2cccc3c2C[C@H](NC(=O)CCCc2ccccc2)CC3)CC1`, the melting point lay within 137 to 139 °C.
In the case of `COc1ccc(O)c(C2(CO)C(=O)N(Cc3ccc(C(F)(F)F)o3)c3cccc(Cl)c32)n1` (stereo not drawn) it was 191 to 193 °C.
The same measure for `N#Cc1ccc(N(Cc2ccc(O)cc2)n2ccnc2)cc1`: 180 °C.
The same measure for `O=C(O)c1ccc(CNC(=O)C2Cc3ccccc3N2S(=O)(=O)c2ccc(-c3ccc(F)cc3OC(F)F)cc2)cc1` (stereo not drawn): 92 to 97 °C.
`OCc1cnc(Oc2ccccc2)s1` registered a melting point of 50 °C.
In the case of `CCOC(=O)C(C)(C)Oc1ccc(-c2ccc(CCNC(=O)c3ccccc3C)cc2)cc1` it was less than 20 °C.
In the case of `CC(C)(C)OC(=O)N1[C@@H](Cc2ccc(O[Si](C)(C)C(C)(C)C)c(C(C)(C)C)c2)C(=O)O[C@H](c2ccccc2)[C@@H]1c1ccccc1` it was 75 to 83 °C; in that of `COc1cc(OC)nc(Oc2cccc(Oc3nc(OC)cc(OC)n3)c2C=O)n1`, 129 °C.
Consider `CN1C(=O)C(C(=O)Nc2ccc(Oc3ccc(C(F)(F)F)cn3)cc2)C(=O)N(C)C1=S`, for which the melting point fell in the range of 156 to 158 °C.
Turning to `Cc1nn(-c2c(Cl)cc(C(F)(F)F)cc2Cl)c(Cl)c1C=O`, the melting point was 201 °C.
`CN1CCN(c2cc3c(cc2F)c(=O)c(C(=O)O)cn3CCO)CC1` came in with a melting point of 270 °C.
In the case of `CCC(N)(CO)CS(=O)(=O)c1ccccc1C(=O)c1ccccc1` (stereo not drawn), the melting point is 150 to 151 °C.
In the case of `COCCOC(=O)Nc1cccc(C)c1COc1cccn2c(C=O)c(C)nc12` it was 119 to 120 °C; in that of `Nc1ncnc2c1c(-c1ccccc1)cn2-c1cccc(O)c1`, 227 to 228 °C; in that of `Cc1ccc(S(=O)(=O)c2ccc3[nH]cc(CCN)c3c2)cc1`, 137 to 140 °C.
The same measure for `COc1ccc2c(c1)C(c1ccc(Cl)cc1)=C1CCC(=S)NC12` (stereo not drawn): 202 to 203 °C.
`O=c1c(-c2ccc(O)cc2)coc2cc(O)ccc12` showed a melting point of 227 to 228 °C.
`CC[C@H]1[C@H](O)CC(=O)N1c1ccc(C#N)c(C(F)(F)F)c1` returned a melting point of 111 to 112 °C.
The same measure for `CCCc1nn(-c2ccc(C(F)(F)F)cn2)cc1CCCOc1cc(CC(=O)O)ccc1OCC`: 124 to 125 °C; for `COc1cc(CC#N)nc(N)n1`: 95 to 98 °C.
On to `FC(F)(F)c1ccc(CCc2cc(OCc3ccccc3)c(OCc3ccccc3)nn2)cc1Cl`, for which the melting point lay in the range of 169 to 170 °C.
As for `COc1cc2ncnc(NC3=CC(=O)C(N(C)c4ccccc4)=CC3=O)c2cc1OC`, the melting point was in the range of 204 to 206 °C.
In the case of `Cc1cccc2c1S(=O)(=O)N=C2C1=C(O)C(C(C)(C)C)N(Cc2ccc(F)cc2)C1=O` (stereo not drawn) it was greater than 250 °C; in that of `CN1c2ccc(C#CCOC3CCCCO3)cc2C(O)=C(C(=O)NCc2ccc(Cl)cc2)S1(=O)=O` (stereo not drawn), 148 to 149 °C.
`Cc1nc(-n2cnn(CC3CC3)c2=O)sc1C(N)=O` yielded a melting point of 180 to 181 °C.
In the case of `Nc1nnc2ccc(N3CCCCC3)nn12` it was 245 to 246 °C; in that of `CCCCCCCCCCCCOC(=O)NS(=O)(=O)Cl`, 62 to 63 °C; in that of `N#CCSc1c[nH]c2ccccc12`, 52 to 54.5 °C.
In the case of `O=C(OCc1ccc(OCCc2ccc(Cl)cc2)cc1)c1cccnc1` it was 77 to 78 °C; in that of `CCc1ncc2n1-c1ccc(Cl)cc1C(c1ccccc1F)=NC2`, 140 to 143 °C; in that of `Clc1cc2nc(-c3ccncc3)[nH]c2cc1Cl`, 297 °C.
In the case of `CC(C)(N)Cc1ccc(NS(=O)(=O)c2ccccc2)cc1`, the melting point was in the range of 180 to 181 °C.
As to `CC(CSC(=S)c1cccs1)C(=O)N1CCCC1C(=O)O` (stereo not drawn), the melting point lay in the range of 149 to 150 °C.
The same measure for `Clc1ccccc1N1CCN(Cc2nc3ccccc3[nH]2)CC1`: 245 to 246 °C; for `COc1cccc2c(=O)c3c(Cl)ccc([N+](=O)[O-])c3[nH]c12`: 315 to 320 °C; for `Nc1nc(NCc2cccc(I)c2)c2ncn(C3OC(CO)C(O)C3O)c2n1` (stereo not drawn): 152 to 154 °C.
Molecule `Cc1ccc(S(=O)(=O)N(c2ccc(Cl)cc2C#N)C(C)C)cc1` yielded a melting point of 130 °C.
Turning to `COc1ccc(CC(=O)NCCc2ccc(N)cc2)cc1`, the melting point was 112 to 114 °C.
The molecule `CCSc1ccc(-c2coc3ccc(-c4nnc(C)o4)nc23)cc1` gave a melting point of 174 to 175 °C.
Molecule `O=C(O)[C@H](Cc1ccccc1)Nc1c(NCc2ccccc2)c(=O)c1=O` gave a melting point of 215 to 216 °C.
In the case of `COc1ccn2c(Cl)c(CCc3ccc4nc(N)oc4c3)nc2c1` it was 225 to 227 °C; in that of `Oc1nc2c([nH]1)CCCCC2`, 272 °C.
`COC(=O)C(O)=Cc1ccc(OCc2ccc(F)cc2)cn1` registered a melting point of 131 to 132 °C.
Consider `COC(=O)c1cc(-c2ccncc2)cc2c1OC(c1ccccc1)(c1ccccc1)O2`, for which the melting point was in the range of 151 to 152 °C.
In the case of `N#CC1CN1C(=O)NC(=O)c1ccco1` (stereo not drawn) it was 148 to 150 °C.
With `CCOC(=O)C1=CC2(CCC1S(=O)(=O)Nc1ccc(F)cc1Cl)O[C@H]([C@H](O)CO)[C@@H]([C@H](O)CO)O2` (stereo partly drawn), the melting point was in the range of 55 to 56 °C.
The same measure for `COC(=O)c1cc(OC)c(OC)cc1NC(=O)c1sccc1S(=O)(=O)Nc1onc(C)c1Cl`: 167 to 168 °C.
Molecule `O=C(O)c1c[nH]c2nc(Cl)ccc2c1=O` displayed a melting point of 271 to 273 °C.
In the case of `COc1ccc(N2CCN(c3ccc(NC(=O)Oc4ccccc4)cc3)CC2)cc1` it was 204 °C.
For `OCC1CCc2cc3ccccc3n2CC1` (stereo not drawn), the melting point was 90 to 91 °C.
Molecule `Cc1cc(C)c(COc2cccnc2NC(=N)Nc2ccc(Cl)cc2)c(C)c1` registered a melting point of 169 to 171 °C.
`Cn1nc(-c2ccccc2)c2ccc(Cl)nc21` showed a melting point of 94 to 96 °C.
In the case of `CC1C(C(N)=O)CC2CC1C2(C)C` (single isomer, unassigned; (+)) it was 131 °C; in that of `CC(=O)Nc1ccc(S(=O)(=O)Nc2cc(C)c(S(=O)(=O)C[N+](=O)[O-])c(C)c2)cc1`, 209 to 210 °C.
In the case of `CC(=O)NCCC1CCc2c(F)cc3nn(C)cc3c21` (stereo not drawn) it was 116 to 119 °C; in that of `CC(=O)Nc1ccc2c(c1)CCC1CC(=O)NN=C21` (stereo not drawn), 284 °C; in that of `Fc1cccc(-c2ccc3nnn(Cc4ccc5ncccc5c4)c3n2)c1`, 145 to 147 °C.
`CCCCCCCCCCCC(=O)N[C@@H](CC(C)C)C(=O)N[C@@H](C(C)C)[C@@H](O)c1c(-c2ccccc2)c1=O` had a melting point of 123 to 127 °C.
Turning to `COC(=O)Cn1c(C(=O)N(CCC2CCCCC2)c2nc(-c3cc(OC)c(C)cc3OC)cs2)cc2ccccc21`, the melting point was 144 to 146 °C.
In the case of `CC(C)(Oc1ccc(OCCCCc2cc(-c3ccc(C(F)(F)F)cc3)no2)cc1)C(=O)O`, the melting point lay within 103 to 104 °C.
In the case of `CC(C)N1CC(CO)C(c2ccccc2)(c2ccccc2)C1=O` (stereo not drawn) it was 159 to 161 °C; in that of `Cc1[nH]c(=S)n(Nc2cccc(Cl)c2)c1-c1cccc(Cl)c1`, 204 °C; in that of `CC(C)N1C(=O)CO[C@@H]2c3cc(F)ccc3OCC[C@H]21` (relative stereo), 127 to 143 °C.
The same measure for `CCCN(CCC)C(=O)C(C)n1c(-c2ccc(Cl)cc2)nc2cccnc21` (stereo not drawn): 96 to 99 °C; for `CCC1(O)CCC2C3=C(CCC21C)c1ccc(OC)cc1CC3` (stereo not drawn): 105 to 120 °C; for `O=C1Cc2ccc(SCc3ccccc3)cc2N1`: 132 to 134 °C.
In the case of `Cn1c(-c2ccc(Cl)c(S(N)(=O)=O)c2)csc1=Nc1ccccc1` it was 168 to 171 °C.

As usually defined, the melting point is the temperature, or range, at which the solid turns liquid.
